Like-named read-outs stand apart in the source and are kept apart here.

The assay deals with HCT-15. The assay is described as follows: HCT-15 data of payloads and linker-payloads (EC50, with or without verapamil). Format: cell-based.
[1] abbreviates: Homo sapiens, payload, HCT-15 cells, no verapamil, read-out: HCT-15 EC50.
[2] abbreviates: payload, HCT-15 cells plus verapamil, read-out: HCT-15 + verapamil EC50.
The mark [3] stands for this setting: Homo sapiens, linker-payload, HCT-15 cells, read-out: HCT-15 EC50.

Broadly, the EC50 is the midpoint of the concentration-response curve. On to `CC[C@@]1(O)C(=O)OCc2c1cc1n(c2=O)Cc2c-1nc1cc(F)c(C)c3c1c2[C@@H](NC(=O)[C@@H](N)CCCCN)CC3` [P4, (2S)-2,6-diamino-N-[(10S,23S)-10-ethyl-18-fluoro-10-hydroxy-19-methyl-5,9-dioxo-8-oxa-4,15-diazahexacyclo[[14.7.1.0^2,^14.0^4,^13.0^6,^11.0^20,^24]]tetracosa-1,6(11),12,14,16,18,20(24)-heptaen-23-yl]hexanamide], for which the EC50 under setting [1] stood at 447 nM and the EC50 under setting [2] came out at 581 nM.
Take `CC[C@@]1(O)C(=O)OCc2c1cc1n(c2=O)Cc2c-1nc1cc(F)c(C)c3c1c2[C@@H](NC(=O)[C@H](CCC(=O)O)NC(=O)OCc1ccc(NC(=O)[C@H](CCCNC(N)=O)NC(=O)[C@@H](NC(=O)CCOCCOCCOCCOCCNC(=O)COC2C#CCCCCC2)C(C)C)cc1)CC3` (stereo partly drawn) [LP9, (4S)-4-{[({4-[(2S)-5-(carbamoylamino)-2-[(2S)-2-{1-[2-(cyclooct-2-yn-1-yloxy)acetamido]-3,6,9,12-tetraoxapentadecan-15-amido}-3-methylbutanamido]pentanamido]phenyl}methoxy)carbonyl]amino}-4-{[(10S,23S)-10-ethyl-18-fluoro-10-hydroxy-19-methyl-5,9-dioxo-8-oxa-4,15-diazahexacyclo[14.7.1.0^2,^14.0^4,^13.0^6,^11.0^20,^24]tetracosa-1,6(11),12,14,16,18,20(24)-heptaen-23-yl]carbamoyl}butanoic acid]: the EC50 under setting [3] is 722 nM.
`CC[C@@]1(O)C(=O)OCc2c1cc1n(c2=O)Cc2c-1nc1ccc(OC)cc1c2CNCCCN=[N+]=[N-]` [P23, (S)-11-(((3-azidopropyl)amino)methyl)-4-ethyl-4-hydroxy-9-methoxy-1,12-dihydro-14H-pyrano[3′,4′:6,7]indolizino[1,2-b]quinoline-3,14(4H)-dione]: the EC50 under setting [1] was 36.7 nM.
Regarding `CC[C@@]1(O)C(=O)OCc2c1cc1n(c2=O)Cc2cc3cc(O)ccc3nc2-1` [P14, 10-hydroxy camptothecin, reference compound], the EC50 is, setting by setting: under setting [1], 11.6 nM; under setting [2], 6.79 nM.
With `CC[C@@]1(O)C(=O)OCc2c1cc1n(c2=O)Cc2c-1nc1ccc(OC)cc1c2Cn1cc(Cc2ccccc2)nn1` [P28, (S)-11-((4-benzyl-1H-1,2,3-triazol-1-yl)methyl)-4-ethyl-4-hydroxy-9-methoxy-1,12-dihydro-14H-pyrano[3′,4′:6,7]indolizino[1,2-b]quinoline-3,14(4H)-dione], under setting [1], the EC50 stood at 34.2 nM.
For `CC[C@@]1(O)C(=O)OCc2c1cc1n(c2=O)Cc2c-1nc1cc(F)c(C)c3c1c2[C@@H](NC(=O)OCc1ccc(NC(=O)[C@H](CCCNC(N)=O)NC(=O)[C@@H](NC(=O)CCOCCOCCOCCOCCNC(=O)COC2C#CCCCCC2)C(C)C)cc1)CC3` (stereo partly drawn) [LP1, {4-[(2S)-5-(Carbamoylamino)-2-[(2S)-2-{1-[2-(cyclooct-2-yn-1-yloxy)acetamido]-3,6,9,12-tetraoxapentadecan-15-amido}-3-methylbutanamido]pentanamido]phenyl}methyl N-[(10S,23S)-10-ethyl-18-fluoro-10-hydroxy-19-methyl-5,9-dioxo-8-oxa-4,15-diazahexacyclo[14.7.1.0^2,^14.0^4,^13.0^6,^11.0^20,^24]tetracosa-1,6(11),12,14,16,18,20(24)-heptaen-23-yl]carbamate], the EC50 under setting [3] was found to be 289 nM.
Regarding `CC[C@@]1(O)C(=O)OCc2c1cc1n(c2=O)Cc2cc3cc(OC)ccc3nc2-1` [P15, (19S)-19-Ethyl-19-hydroxy-7-methoxy-17-oxa-3,13-diazapentacyclo[11.8.0.0^2,^11.0^4,^9.0^15,^20]henicosa-1(21),2,4,6,8,10,15(20)-heptaene-14,18-dione], the EC50 stood at 6.99 nM under setting [1] and 4.47 nM under setting [2].
As for `CC[C@@]1(O)C(=O)OCc2c1cc1n(c2=O)Cc2c-1nc1cc(F)c(C)c3c1c2[C@@H](NC(=O)OCc1ccc(NC(=O)[C@H](CCCNC(N)=O)NC(=O)[C@@H](NC(=O)CCOCCOCCOCCOCCNC(=O)CCC(=O)N2Cc4ccccc4C#Cc4ccccc42)C(C)C)cc1)CC3` [LP2], the EC50 under setting [3] worked out at 145 nM.
Regarding `CC[C@@]1(O)C(=O)OCc2c1cc1n(c2=O)Cc2c-1nc1cc(F)c(C)c3c1c2[C@@H](NC(=O)CO)CC3` [P12, Dxd, reference compound], the EC50 stood at 4.18 nM (Homo sapiens, payload, HCT-15 cells plus verapamil, read-out: HCT-15 + verapamil EC50) and 7.99 nM under setting [1].
Regarding `CC[C@@]1(O)C(=O)OCc2c1cc1n(c2=O)Cc2c-1nc1ccc(OC)cc1c2CNCc1ccccc1` [P26, (S)-11-((benzylamino)methyl)-4-ethyl-4-hydroxy-9-methoxy-1,12-dihydro-14H-pyrano[3′,4′:6,7]indolizino[1,2-b]quinoline-3,14(4H)-dione], the EC50 under setting [1] worked out at 51.9 nM.
With `CC[C@@]1(O)C(=O)OCc2c1cc1n(c2=O)Cc2c-1nc1cc(F)c(C)c3c1c2[C@@H](NCCS(C)(=O)=O)CC3` [P7, (10S,23S)-10-ethyl-18-fluoro-10-hydroxy-23-[(2-methanesulfonylethyl)amino]-19-methyl-8-oxa-4,15-diazahexacyclo[[14.7.1.0^2,^14.0^4,^13.0^6,^11.0^20,^24]]tetracosa-1,6(11),12,14,16,18,20(24)-heptaene-5,9-dione], the EC50 runs as follows: under setting [1], 5.58 nM; under setting [2], 1.69 nM.
For `CC[C@@]1(O)C(=O)OCc2c1cc1n(c2=O)Cc2c-1nc1cc(F)c(C)c3c1c2[C@@H](NC(=O)[C@H](Cc1ccccc1)NC(=O)OCc1ccc(NC(=O)[C@H](CCCNC(N)=O)NC(=O)[C@@H](NC(=O)CCOCCOCCOCCOCCNC(=O)COC2C#CCCCCC2)C(C)C)cc1)CC3` (stereo partly drawn) [LP10, {4-[(2S)-5-(carbamoylamino)-2-[(2S)-2-{1-[2-(cyclooct-2-yn-1-yloxy)acetamido]-3,6,9,12-tetraoxapentadecan-15-amido}-3-methylbutanamido]pentanamido]phenyl}methyl N-[(1 S)-1-{[(10S,23S)-10-ethyl-18-fluoro-10-hydroxy-19-methyl-5,9-dioxo-8-oxa-4,15-diazahexacyclo[14.7.1.0^2,^14.0^4,^13.0^6,^11.0^20,^24]tetracosa-1,6(11),12,14,16,18,20(24)-heptaen-23-yl]carbamoyl}-2-phenylethyl]carbamate], the EC50 under setting [3] stood at 852 nM.
With `CC[C@@]1(O)C(=O)OCc2c1cc1n(c2=O)Cc2c-1nc1cc(F)c(C)c3c1c2[C@@H](NC(=O)[C@@H](N)CCC(=O)O)CC3` [P3, (4S)-4-amino-4-{[(10S,23S)-10-ethyl-18-fluoro-10-hydroxy-19-methyl-5,9-dioxo-8-oxa-4,15-diazahexacyclo[[14.7.1.0^2,^14.0^4,^13.0^6,^11.0^20,^24]]tetracosa-1,6(11),12,14,16,18,20(24)-heptaen-23-yl]carbamoyl}butanoic acid], the EC50 is, setting by setting: under setting [1], 610 nM; under setting [2], 596 nM.
In the case of `CC[C@@]1(O)C(=O)OCc2c1cc1n(c2=O)Cc2c-1nc1ccc(OC)cc1c2Cn1nnc2c1CCCCCC2OCC(=O)O` (stereo partly drawn) [P27, 2-((1-(((S)-4-ethyl-4-hydroxy-9-methoxy-3,14-dioxo-3,4,12,14-tetrahydro-1H-pyrano[3′,4′:6,7]indolizino[1,2-b]quinolin-11-yl)methyl)-4,5,6,7,8,9-hexahydro-1H-cycloocta[d][1,2,3]triazol-4-yl)oxy)acetic acid], the EC50 under setting [1] amounted to 78.8 nM.

(Values after patent US20230287138A1, “PROTEIN-DRUG CONJUGATES COMPRISING CAMPTOTHECIN ANALOGS AND METHODS OF USE THEREOF” (Regneron Pharmaceuticals, Inc., priority 2022, published 2023).)
